Reference: patent publication US11761023B2, “Analyzing and using motility kinematics of microorganisms” (PhAST Corp., priority 2017, dated 2023)
Converted amounts (≈) assume the structure as drawn. Like-named read-outs stand apart in the source and are kept apart here.

How the values were obtained:
Format in all cases: cell-based, Pseudomonas aeruginosa
P. aeruginosa PA14 = assay: Single-cell swimming kinematics (ASK software, phase contrast video microscopy) upon antibiotic exposure; conditions: for change in swimming speed compared to antibiotic-free control: FIG. 12
[1] = system: clinical isolate P. aeruginosa 9/53; assay: MIC by broth microdilution assay
P. aeruginosa ATCC 27853 = assay: MIC by broth microdilution assay
[2] = system: susceptible clinical isolate of P. aeruginosa (PSA 9/53); assay: Single-cell swimming speed (ASK software) relative to antibiotic-free control; conditions: ciprofloxacin 4 μg/ml, meropenem 0.5 μg/ml, gentamicin 8 μg/ml; FIG. 17
Description: The swimming speed (y axis) was normalized by the speed in the control (which thus becomes the dashed line at 1).

| Compound | change in swimming speed compared to antibiotic-free control (P. aeruginosa PA14; 0.1 μg/ml) | decrease of mean swimming speed compared to the antibiotic-free control (P. aeruginosa PA14; 1 μg/ml, after 30 min) [%] | mean swimming speed of exposed cells (P. aeruginosa PA14; 1 μg/ml, after 30 min) [μm/s] | decrease of mean swimming speed compared to the antibiotic-free control (P. aeruginosa PA14; 1 μg/ml, after 50 min) [%] | mean swimming speed of exposed cells (P. aeruginosa PA14; 1 μg/ml, after 50 min) [μm/s] | decrease of mean swimming speed compared to the antibiotic-free control (P. aeruginosa PA14; 1 μg/ml, after 70 min) [%] | mean swimming speed of exposed cells (P. aeruginosa PA14; 1 μg/ml, after 70 min) [μm/s] | change in swimming speed compared to antibiotic-free control (P. aeruginosa PA14; 1 μg/ml) | change in swimming speed compared to antibiotic-free control (P. aeruginosa PA14; 10 μg/ml) | MIC [1] [µg/mL] | MIC (P. aeruginosa ATCC 27853) [µg/mL] | sensitivity of motility (swimming speed) to the antibiotic [2] | MIC ([1]; Pseudomonas aeruginosa, read-out: MIC) [µg/mL] |
| --- | --- | --- | --- | --- | --- | --- | --- | --- | --- | --- | --- | --- | --- |
| CC(C)(O/N=C(\C(=O)N[C@@H]1C(=O)N2C(C(=O)[O-])=C(C[n+]3ccccc3)CS[C@H]12)c1csc(N)n1)C(=O)O [ceftazidime] | no significant changes | 14 | 42.6 | 23 | 35.4 | 33 | 31.2 | – | – | – | – | – | – |
| gentamicin | not | – | – | – | – | – | – | not | significantly reduced | 1 | 1 | very sensitive | – |
| C[C@@H](O)[C@H]1C(=O)N2C(C(=O)O)=C(S[C@@H]3CN[C@H](C(=O)N(C)C)C3)[C@H](C)[C@H]12 [meropenem] | – | – | – | – | – | – | – | – | – | – | – | less so | 0.5 (≈ 1.3 µM) |
